In patent US10383815B2, “Method and compositions for improving selective catabolysis in cells of keratin surfaces” (ELC Management LLC, priority 2012, dated 2019):

System: PER1 gene expression in skin cells
Assay: PER1 gene expression in skin cells
Type: cell-based
Text: A specific example includes a botanical extract from Echinacea purpurea sold by Symrise under the brand name Symfinity™ 1298 which is an extract of Echinacea purpurea which is standardized during the extraction process to contain about 3% by weight of the total extract composition of cichoric acid. Echinacea extracts from different sources will vary in cichoric acid content, and as such will yield variable results in induction of PER1 gene expression. […] Moreover, each species of Echinacea will differ in content of phenolic and cichoric acids. Ethanolic extract of the roots of Echinacea purpura will provide more cichoric acid than ethanolic extracts of Echineacea angustifolia or Echinacea pallida. The content of active ingredients in any extract is also very dependent on the method of extraction. For example, it is known that in many cases enzymatic browning during the extraction process will reduce the phenolic acid content of the resulting extract.

Question: With `O=C(/C=C/c1ccc(O)c(O)c1)O[C@@H](C(=O)O)[C@@H](O)C(=O)O` [caftaric acid] as the molecule, how does the PER1 gene expression read?
Answer: does not increase
